Measured values published in article PMC6531005 (Science Advances, 2019).

Legend:
Type in all cases: biochemical
CDK9 = CDK9 (Homo sapiens, UniProt P50750); assay: SelectScreen kinase selectivity panel
CDK2 kinase = CDK2 kinase (Homo sapiens, UniProt P24941); assay: enzymatic kinase inhibition assay, CDK2/cyclin E
CDC7 kinase = CDC7 kinase (Homo sapiens, UniProt O00311); assay: TR-FRET
Sequence of CDC7 kinase (O00311 whole entry): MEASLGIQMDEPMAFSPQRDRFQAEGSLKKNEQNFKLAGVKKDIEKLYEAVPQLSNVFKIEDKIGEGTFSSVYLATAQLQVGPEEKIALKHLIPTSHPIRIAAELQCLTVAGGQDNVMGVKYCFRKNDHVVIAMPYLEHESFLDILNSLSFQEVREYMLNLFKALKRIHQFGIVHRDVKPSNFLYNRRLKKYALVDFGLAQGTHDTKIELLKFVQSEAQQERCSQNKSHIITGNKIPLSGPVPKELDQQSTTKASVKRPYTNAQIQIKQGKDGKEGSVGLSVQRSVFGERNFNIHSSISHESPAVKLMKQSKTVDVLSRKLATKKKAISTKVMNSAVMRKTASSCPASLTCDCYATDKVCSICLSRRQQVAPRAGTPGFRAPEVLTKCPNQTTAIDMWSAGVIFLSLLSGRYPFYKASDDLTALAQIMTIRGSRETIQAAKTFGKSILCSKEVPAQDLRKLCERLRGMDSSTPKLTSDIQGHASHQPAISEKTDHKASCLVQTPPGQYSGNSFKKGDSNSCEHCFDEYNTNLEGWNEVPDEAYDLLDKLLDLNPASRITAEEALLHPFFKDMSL
Sequence of CDC7 kinase (Q9UBU7 whole entry partner): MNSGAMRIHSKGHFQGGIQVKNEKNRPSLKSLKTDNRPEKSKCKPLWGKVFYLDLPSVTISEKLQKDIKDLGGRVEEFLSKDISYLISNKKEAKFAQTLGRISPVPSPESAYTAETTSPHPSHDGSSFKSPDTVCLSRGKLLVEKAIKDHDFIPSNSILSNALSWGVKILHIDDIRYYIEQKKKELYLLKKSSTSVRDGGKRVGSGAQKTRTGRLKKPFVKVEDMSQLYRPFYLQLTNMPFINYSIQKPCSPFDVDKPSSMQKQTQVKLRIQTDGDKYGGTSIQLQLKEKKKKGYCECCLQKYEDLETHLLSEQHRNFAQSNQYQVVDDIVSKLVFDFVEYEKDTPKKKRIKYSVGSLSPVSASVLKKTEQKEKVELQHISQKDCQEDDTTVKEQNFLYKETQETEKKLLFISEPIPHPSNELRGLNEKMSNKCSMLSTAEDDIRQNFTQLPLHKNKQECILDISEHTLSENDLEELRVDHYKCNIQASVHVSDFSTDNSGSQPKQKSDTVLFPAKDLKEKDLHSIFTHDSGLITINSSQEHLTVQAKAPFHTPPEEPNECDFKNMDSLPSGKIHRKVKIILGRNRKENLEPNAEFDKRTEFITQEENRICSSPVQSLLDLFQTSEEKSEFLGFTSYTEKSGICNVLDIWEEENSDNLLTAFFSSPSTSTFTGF

Sequence of CDK9 (P50750 whole entry): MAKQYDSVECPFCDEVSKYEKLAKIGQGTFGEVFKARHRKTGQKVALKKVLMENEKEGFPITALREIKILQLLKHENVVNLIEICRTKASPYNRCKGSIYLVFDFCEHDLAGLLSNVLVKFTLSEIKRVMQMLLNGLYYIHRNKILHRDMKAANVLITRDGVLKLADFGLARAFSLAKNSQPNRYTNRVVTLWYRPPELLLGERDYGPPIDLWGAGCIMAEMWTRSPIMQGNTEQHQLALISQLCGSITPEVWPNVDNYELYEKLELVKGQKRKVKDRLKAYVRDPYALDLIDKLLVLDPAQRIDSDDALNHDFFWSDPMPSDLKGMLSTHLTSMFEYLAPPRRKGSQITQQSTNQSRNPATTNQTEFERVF

Cc1n[nH]cc1-c1cc2nc([C@@H]3CC4CCN3CC4)[nH]c(=O)c2s1 [TAK-931, 2-[(2S)-1-azabicyclo[2.2.2]oct-2-yl]-6-(3-methyl-1H-pyrazol-4-yl)thieno[3,2-d]pyrimidin-4(3H)-one hemihydrate]
SelectScreen kinase selectivity panel (fig. S1B) (CDK9): CDK9, which is the second high-affinity target of TAK-931 (fig. S1B) | IC50 (CDK2 kinase): 6.3 µM | IC50 (CDC7 kinase): < 0.0003 µM
